Results on five compounds are retold here after PMC5564600 (Oncotarget, 2017).

Common to all, as to assay: biochemical
Holding throughout (type): binding

The target of test [1] is T1, panel of 442 kinases (Homo sapiens, UniProt Q9UQM7).
T1 construct: purchased Ambit Biosciences (scanMAXX KINOMEscan)
Particulars: CAMK2A; for remaining activity at 1 µM: read-out: % of control at 1 µM.

The target in test [2] is T2, panel of 442 kinases (Homo sapiens, UniProt P07949, V804M).
T2 construct: purchased Ambit Biosciences (scanMAXX KINOMEscan)
T2 sequence (P07949 29-1114 V804M): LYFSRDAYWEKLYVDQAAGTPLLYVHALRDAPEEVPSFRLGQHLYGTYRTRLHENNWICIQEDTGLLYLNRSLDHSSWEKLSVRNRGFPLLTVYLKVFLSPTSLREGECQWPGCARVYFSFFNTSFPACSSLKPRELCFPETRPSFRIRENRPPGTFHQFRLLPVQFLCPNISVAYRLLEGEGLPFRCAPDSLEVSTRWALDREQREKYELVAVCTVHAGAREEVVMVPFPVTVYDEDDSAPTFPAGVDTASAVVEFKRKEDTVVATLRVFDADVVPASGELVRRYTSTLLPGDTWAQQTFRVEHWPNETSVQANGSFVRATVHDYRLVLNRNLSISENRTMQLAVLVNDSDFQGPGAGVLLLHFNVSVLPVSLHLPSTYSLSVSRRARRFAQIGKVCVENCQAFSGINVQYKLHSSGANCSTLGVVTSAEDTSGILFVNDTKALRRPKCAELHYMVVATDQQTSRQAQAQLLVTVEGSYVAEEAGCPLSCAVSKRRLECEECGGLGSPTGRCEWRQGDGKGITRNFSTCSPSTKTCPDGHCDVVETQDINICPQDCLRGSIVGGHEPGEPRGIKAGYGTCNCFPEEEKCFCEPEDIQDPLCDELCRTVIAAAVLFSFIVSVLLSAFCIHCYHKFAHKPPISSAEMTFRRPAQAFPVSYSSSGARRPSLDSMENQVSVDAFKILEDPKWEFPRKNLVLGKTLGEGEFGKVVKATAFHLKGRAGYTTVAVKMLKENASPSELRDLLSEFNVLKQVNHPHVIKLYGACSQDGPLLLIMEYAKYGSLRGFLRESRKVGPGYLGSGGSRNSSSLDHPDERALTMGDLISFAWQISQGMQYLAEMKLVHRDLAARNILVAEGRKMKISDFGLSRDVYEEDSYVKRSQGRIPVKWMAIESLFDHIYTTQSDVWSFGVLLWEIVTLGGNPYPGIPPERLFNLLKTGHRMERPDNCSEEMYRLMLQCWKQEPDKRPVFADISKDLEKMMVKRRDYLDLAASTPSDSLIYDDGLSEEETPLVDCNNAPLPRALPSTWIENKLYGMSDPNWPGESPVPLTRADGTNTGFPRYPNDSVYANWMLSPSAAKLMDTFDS
Conditions: kinase RET(V804M); for remaining activity at 1 µM: read-out: RET(V804M) (% of control at 1 µM).

Test [3] addresses T3, panel of 442 kinases (Homo sapiens, UniProt Q13882).
T3 construct: purchased Ambit Biosciences (scanMAXX KINOMEscan)
Particulars: BRK; for remaining activity at 1 µM: read-out: % of control at 1 µM.

Test [4] has as its target T4, panel of 442 kinases (Homo sapiens, UniProt O95382).
T4 construct: purchased Ambit Biosciences (scanMAXX KINOMEscan)
T4 sequence (O95382 1-1288): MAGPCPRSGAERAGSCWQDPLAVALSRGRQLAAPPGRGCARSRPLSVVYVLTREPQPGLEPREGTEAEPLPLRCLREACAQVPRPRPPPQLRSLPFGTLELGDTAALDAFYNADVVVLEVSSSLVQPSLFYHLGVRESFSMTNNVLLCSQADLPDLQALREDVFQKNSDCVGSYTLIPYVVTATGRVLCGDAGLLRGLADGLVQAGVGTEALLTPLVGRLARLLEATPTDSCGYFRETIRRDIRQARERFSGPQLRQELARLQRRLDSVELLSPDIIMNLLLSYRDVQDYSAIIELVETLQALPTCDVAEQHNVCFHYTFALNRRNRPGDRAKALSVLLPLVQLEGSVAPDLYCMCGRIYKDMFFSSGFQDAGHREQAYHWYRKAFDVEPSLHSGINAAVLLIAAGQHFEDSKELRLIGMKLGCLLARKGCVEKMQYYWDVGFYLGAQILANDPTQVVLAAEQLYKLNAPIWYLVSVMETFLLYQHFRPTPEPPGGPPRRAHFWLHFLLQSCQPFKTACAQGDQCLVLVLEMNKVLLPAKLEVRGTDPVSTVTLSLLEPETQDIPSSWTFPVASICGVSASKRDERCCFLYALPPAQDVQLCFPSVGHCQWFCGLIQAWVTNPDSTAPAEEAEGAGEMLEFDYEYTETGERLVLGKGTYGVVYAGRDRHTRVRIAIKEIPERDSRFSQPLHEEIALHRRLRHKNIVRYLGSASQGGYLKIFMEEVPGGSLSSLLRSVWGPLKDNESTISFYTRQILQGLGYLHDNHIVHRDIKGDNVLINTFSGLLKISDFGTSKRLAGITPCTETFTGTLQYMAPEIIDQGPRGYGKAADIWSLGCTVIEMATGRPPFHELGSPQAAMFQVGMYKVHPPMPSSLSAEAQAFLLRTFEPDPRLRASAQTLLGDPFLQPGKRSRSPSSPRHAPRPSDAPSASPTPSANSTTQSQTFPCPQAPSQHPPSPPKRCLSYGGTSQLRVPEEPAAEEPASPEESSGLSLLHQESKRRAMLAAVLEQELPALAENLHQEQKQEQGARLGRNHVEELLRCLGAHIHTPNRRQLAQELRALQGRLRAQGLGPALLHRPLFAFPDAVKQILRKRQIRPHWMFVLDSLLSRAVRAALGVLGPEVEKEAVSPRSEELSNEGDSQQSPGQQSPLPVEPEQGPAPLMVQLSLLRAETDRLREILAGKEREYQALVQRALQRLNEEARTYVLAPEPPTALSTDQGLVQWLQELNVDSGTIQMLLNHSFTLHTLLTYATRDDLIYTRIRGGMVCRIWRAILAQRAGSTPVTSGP
Conditions: ASK2; for remaining activity at 1 µM: read-out: % of control at 1 µM.

Test [5] deals with T5, panel of 442 kinases (Homo sapiens, UniProt P10721, A829P).
T5 construct: purchased Ambit Biosciences (scanMAXX KINOMEscan)
T5 sequence (P10721 26-976 A829P): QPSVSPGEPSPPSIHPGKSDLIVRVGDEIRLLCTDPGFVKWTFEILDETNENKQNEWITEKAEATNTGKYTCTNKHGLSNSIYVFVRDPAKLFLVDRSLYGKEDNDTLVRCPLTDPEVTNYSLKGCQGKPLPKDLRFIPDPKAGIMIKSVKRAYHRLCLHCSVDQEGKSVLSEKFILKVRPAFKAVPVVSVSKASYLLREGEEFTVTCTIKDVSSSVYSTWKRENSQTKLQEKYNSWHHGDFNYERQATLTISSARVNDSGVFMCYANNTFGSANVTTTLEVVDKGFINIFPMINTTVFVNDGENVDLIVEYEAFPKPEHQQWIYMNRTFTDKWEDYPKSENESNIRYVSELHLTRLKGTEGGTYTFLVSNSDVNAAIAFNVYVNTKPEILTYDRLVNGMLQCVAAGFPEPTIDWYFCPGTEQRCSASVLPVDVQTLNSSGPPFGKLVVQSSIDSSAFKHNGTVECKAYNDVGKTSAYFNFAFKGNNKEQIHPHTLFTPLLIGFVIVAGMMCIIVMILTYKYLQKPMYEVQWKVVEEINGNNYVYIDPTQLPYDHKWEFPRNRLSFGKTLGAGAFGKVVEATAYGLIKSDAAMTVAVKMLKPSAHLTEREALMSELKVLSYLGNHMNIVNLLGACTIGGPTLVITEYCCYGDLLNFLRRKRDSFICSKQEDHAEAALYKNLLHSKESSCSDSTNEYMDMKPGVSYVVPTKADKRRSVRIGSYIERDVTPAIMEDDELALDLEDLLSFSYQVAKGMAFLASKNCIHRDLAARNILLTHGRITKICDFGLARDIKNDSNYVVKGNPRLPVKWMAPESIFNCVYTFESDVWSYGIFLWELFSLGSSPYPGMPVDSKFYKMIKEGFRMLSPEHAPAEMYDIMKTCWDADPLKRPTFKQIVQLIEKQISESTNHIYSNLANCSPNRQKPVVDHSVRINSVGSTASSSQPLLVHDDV
Conditions: kinase KIT(A829P); for remaining activity at 1 µM: read-out: % of control at 1 µM.

Test [6] has as its target T6, panel of 442 kinases (Homo sapiens, UniProt P36894).
T6 construct: purchased Ambit Biosciences (scanMAXX KINOMEscan)
Particulars: BMPR1A; for remaining activity at 1 µM: read-out: % of control at 1 µM.

Test [7] deals with T7, panel of 442 kinases (Homo sapiens, UniProt Q9Y463).
T7 construct: purchased Ambit Biosciences (scanMAXX KINOMEscan)
T7 sequence (Q9Y463 whole entry): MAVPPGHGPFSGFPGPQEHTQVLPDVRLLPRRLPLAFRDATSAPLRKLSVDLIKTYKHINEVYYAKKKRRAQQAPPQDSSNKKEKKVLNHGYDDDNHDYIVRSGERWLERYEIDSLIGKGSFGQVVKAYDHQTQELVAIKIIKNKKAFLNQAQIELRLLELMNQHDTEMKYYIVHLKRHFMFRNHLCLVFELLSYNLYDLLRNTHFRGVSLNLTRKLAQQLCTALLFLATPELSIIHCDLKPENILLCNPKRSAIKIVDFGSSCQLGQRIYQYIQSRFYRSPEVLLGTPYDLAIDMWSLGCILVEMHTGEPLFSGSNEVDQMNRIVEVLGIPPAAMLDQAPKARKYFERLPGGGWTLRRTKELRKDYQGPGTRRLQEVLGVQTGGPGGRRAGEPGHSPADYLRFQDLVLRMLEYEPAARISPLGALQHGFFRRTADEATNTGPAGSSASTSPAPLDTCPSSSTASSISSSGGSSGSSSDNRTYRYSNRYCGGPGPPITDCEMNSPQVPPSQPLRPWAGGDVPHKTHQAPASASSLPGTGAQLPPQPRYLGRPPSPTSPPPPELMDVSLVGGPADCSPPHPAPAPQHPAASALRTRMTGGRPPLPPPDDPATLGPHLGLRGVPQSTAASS
Conditions: DYRK1B; for remaining activity at 1 µM: read-out: % of control at 1 µM.

Test [8] deals with T8, panel of 442 kinases (Mycobacterium tuberculosis, UniProt P9WI81).
T8 construct: purchased Ambit Biosciences (scanMAXX KINOMEscan)
Particulars: for remaining activity at 1 µM: read-out: PKNB(M.tuberculosis) (% of control at 1 µM); for remaining activity at 10 µM: read-out: PKNB(M.tuberculosis) (% of control at 10 µM).

In test [9] the target is T9, panel of 442 kinases (Homo sapiens, UniProt Q8TDX7).
T9 construct: purchased Ambit Biosciences (scanMAXX KINOMEscan)
T9 sequence (Q8TDX7 whole entry): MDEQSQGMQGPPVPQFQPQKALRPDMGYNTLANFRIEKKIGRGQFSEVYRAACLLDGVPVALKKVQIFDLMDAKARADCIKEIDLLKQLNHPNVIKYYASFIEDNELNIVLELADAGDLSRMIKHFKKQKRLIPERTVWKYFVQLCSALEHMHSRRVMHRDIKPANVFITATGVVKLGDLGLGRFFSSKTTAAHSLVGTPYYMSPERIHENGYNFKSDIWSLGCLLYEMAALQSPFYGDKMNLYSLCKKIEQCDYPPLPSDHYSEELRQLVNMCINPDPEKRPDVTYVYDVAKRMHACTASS
Particulars: kinase NEK7; for remaining activity at 1 µM: read-out: % of control at 1 µM.

Test [10] has as its target T10, panel of 442 kinases (Homo sapiens, UniProt Q52WX2).
T10 construct: purchased Ambit Biosciences (scanMAXX KINOMEscan)
Conditions: kinase SBK1; for remaining activity at 1 µM: read-out: SBK1 (% of control at 1 µM).

Test [11] addresses T11, panel of 442 kinases (Homo sapiens, UniProt P54756).
T11 construct: purchased Ambit Biosciences (scanMAXX KINOMEscan)
Particulars: EPHA5; for remaining activity at 1 µM: read-out: % of control at 1 µM.

Where [12] appears, read: 10 µM, read-out: % of control at 10 µM.

T6 sequence (P36894 24-532): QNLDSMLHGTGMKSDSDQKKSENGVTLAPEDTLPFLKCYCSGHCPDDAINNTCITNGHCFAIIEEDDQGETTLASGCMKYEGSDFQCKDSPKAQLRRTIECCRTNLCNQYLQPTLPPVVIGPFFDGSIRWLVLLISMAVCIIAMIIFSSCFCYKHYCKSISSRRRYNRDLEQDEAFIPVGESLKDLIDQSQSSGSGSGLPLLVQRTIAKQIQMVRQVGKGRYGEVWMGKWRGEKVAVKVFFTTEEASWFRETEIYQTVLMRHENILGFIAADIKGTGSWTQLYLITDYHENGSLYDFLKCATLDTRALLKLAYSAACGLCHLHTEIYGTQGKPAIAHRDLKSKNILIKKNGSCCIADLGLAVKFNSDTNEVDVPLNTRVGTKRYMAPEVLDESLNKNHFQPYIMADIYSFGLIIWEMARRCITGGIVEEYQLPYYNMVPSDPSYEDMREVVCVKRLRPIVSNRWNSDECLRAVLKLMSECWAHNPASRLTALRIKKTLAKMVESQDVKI
T11 sequence (P54756 25-1037): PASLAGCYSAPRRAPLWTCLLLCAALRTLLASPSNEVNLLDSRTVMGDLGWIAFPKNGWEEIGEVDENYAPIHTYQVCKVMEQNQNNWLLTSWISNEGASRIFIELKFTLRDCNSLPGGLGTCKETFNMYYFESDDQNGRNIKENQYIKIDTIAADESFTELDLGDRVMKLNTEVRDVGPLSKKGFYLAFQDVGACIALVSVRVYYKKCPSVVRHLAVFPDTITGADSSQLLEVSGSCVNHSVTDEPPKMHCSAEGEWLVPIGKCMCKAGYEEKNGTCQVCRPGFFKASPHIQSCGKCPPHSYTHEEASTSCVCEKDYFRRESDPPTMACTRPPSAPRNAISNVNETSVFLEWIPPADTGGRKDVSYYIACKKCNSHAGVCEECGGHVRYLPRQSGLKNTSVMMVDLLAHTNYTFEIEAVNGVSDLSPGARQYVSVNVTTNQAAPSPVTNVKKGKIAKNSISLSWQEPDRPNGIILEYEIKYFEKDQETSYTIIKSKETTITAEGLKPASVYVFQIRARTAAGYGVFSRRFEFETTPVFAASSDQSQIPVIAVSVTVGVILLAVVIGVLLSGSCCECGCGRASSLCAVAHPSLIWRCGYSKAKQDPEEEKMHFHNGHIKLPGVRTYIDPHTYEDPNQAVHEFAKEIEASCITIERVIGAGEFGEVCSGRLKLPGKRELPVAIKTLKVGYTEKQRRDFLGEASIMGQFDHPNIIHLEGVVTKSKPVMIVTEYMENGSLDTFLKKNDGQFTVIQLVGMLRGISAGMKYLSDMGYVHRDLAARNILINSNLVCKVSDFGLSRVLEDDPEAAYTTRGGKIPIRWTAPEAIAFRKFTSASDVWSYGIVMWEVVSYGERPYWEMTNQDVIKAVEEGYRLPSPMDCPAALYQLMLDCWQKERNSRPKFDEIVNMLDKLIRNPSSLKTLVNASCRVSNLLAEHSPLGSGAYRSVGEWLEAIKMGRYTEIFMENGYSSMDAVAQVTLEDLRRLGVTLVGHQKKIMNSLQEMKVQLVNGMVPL
T3 sequence (Q13882 whole entry): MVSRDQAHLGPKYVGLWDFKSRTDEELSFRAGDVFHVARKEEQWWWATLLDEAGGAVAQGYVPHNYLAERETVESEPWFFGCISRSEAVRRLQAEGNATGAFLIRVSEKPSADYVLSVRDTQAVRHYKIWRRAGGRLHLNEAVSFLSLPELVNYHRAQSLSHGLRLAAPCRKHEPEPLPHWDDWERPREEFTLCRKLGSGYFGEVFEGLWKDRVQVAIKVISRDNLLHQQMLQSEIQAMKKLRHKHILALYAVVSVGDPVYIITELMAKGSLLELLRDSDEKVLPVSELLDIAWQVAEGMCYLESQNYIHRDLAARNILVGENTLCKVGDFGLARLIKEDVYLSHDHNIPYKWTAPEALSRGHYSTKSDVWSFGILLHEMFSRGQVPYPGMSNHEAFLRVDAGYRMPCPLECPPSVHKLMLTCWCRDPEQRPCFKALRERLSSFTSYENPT

Consider `COc1ncc(-c2ccc3nccc(-c4ccnnc4)c3c2)cc1NS(=O)(=O)c1ccc(F)cc1F` [Omipalisib], for which the remaining activity at 1 µM at panel of 442 kinases [1] is 100%; at panel of 442 kinases [2], 90%; at panel of 442 kinases [3], 91%; at panel of 442 kinases [4] it was 91%; at panel of 442 kinases [5], 100%; on panel of 442 kinases [6], 100%. In addition, the remaining activity at 1 µM is 88% on panel of 442 kinases [7]; 67% on panel of 442 kinases [8]; 100% at panel of 442 kinases [9]; 100% on panel of 442 kinases [10]; 100% at panel of 442 kinases [11].

Turning to `Cn1c(=O)n(-c2ccc(C(C)(C)C#N)cc2)c2c3cc(-c4cnc5ccccc5c4)ccc3ncc21` [Dactolisib, 2-methyl-2-[4-(3-methyl-2-oxo-8-quinolin-3-yl-2,3-dihydroimidazo[4,5-c]quinolin-1-yl)-phenyl] propionitrile], the remaining activity at 1 µM at panel of 442 kinases [1] was found to be 90%; on panel of 442 kinases [3] it was 90%; on panel of 442 kinases [4], 90%; at panel of 442 kinases [5], 61%; at panel of 442 kinases [6] it was 98%; on panel of 442 kinases [7] it was 93%. The figures for the remaining activity at 1 µM at panel of 442 kinases [8], at panel of 442 kinases [9] and at panel of 442 kinases [10] were 100%, 90% and 92%, respectively.

As to `CS(=O)(=O)N1CCN(Cc2cc3nc(-c4cccc5[nH]ncc45)nc(N4CCOCC4)c3s2)CC1` [Pictilisib, 2-(1H-indazol-4-yl)-6-(4-methanesulfonyl-piperazin-1-ylmethyl)-4-morpholin-4-yl-t hieno[3,2-d]pyrimidine], on panel of 442 kinases [8], the remaining activity at 1 µM was found to be 85% and the remaining activity at 10 µM was determined as 55%.

As to `Nc1cc(C(F)(F)F)c(-c2cc(N3CCOCC3)nc(N3CCOCC3)n2)cn1` [Buparlisib], the remaining activity at 1 µM is 100% at panel of 442 kinases [1]; 97% on panel of 442 kinases [2]; 100% on panel of 442 kinases [3]; 87% on panel of 442 kinases [4]; 100% at panel of 442 kinases [5]; 100% at panel of 442 kinases [6]. The remaining activity at 1 µM on panel of 442 kinases [7] was determined as 86%; on panel of 442 kinases [8], 100%; at panel of 442 kinases [9], 100%; at panel of 442 kinases [10], 94%; on panel of 442 kinases [11], 100%. Also, the remaining activity at 10 µM on panel of 442 kinases [1] (setting [12]) turned out to be 100%; on panel of 442 kinases [2] (10 µM, read-out: RET(V804M) (% of control at 10 µM)), 100%; at panel of 442 kinases [3] (setting [12]), 100%; at panel of 442 kinases [4] (setting [12]), 100%; on panel of 442 kinases [5] (setting [12]) it was 98%; on panel of 442 kinases [6] (setting [12]) it was 100%. Also, the remaining activity at 10 µM on panel of 442 kinases [7] (setting [12]) turned out to be 100%; at panel of 442 kinases [8], 73%; on panel of 442 kinases [9] (setting [12]), 94%; on panel of 442 kinases [10] (10 µM, read-out: SBK1 (% of control at 10 µM)) it was 100%; on panel of 442 kinases [11] (setting [12]), 100%.

`FC(F)c1nc2ccccc2n1-c1nc(N2CCOCC2)nc(N2CCOCC2)n1` [ZSTK474, 2-(difluoromethyl)-1-[4,6-di(4-morpholinyl)-1,3,5-triazin-2-yl]-1H-benzimidazole]: the remaining activity at 1 µM on panel of 442 kinases [1] was 87%; on panel of 442 kinases [2] it was 100%; at panel of 442 kinases [3], 91%; at panel of 442 kinases [4], 97%; at panel of 442 kinases [5], 90%; on panel of 442 kinases [6], 58%. Moreover, the remaining activity at 1 µM was found to be 97% at panel of 442 kinases [7]; 86% at panel of 442 kinases [8]; 68% on panel of 442 kinases [9]; 100% at panel of 442 kinases [10]; 100% on panel of 442 kinases [11].
